Bounds are passed on as bounds.

Results on 18 molecules are retold here after patent publication US7452704B2, “Dehydrogenase and a gene encoding the same” (priority 2002, dated 2008).

What all share (format): biochemical, Pseudomonas putida ATCC 12633
Series [1] concerns the target T1, N-methyl-L-phenylalanine dehydrogenase (Pseudomonas putida, UniProt Q5FB93).
T1 construct: made in house
Nature of the series: Substrate specificity for keto acids with NADH as coenzyme (Example 11). The note with it: keto acid 40 mM (β-phenylpyruvic acid 30 mM), NADH 0.3 mM, methylamine 180 mM, pH 10.0, 37° C.; pyruvic acid = 100%. As to the method:
(§1) Purified form of the present enzyme was obtained from cloned Escherichia coli cells in the same way as in Example 5.
Enzyme activity was measured by adding thereto various keto acids shown in Table 4 to a final concentration of 40 mM (except for β-phenylpyruvic acid, which was 30 mM), NADH to a final concentration of 0.3 mM, bis-Tris propane buffer (pH 10.0) to a final concentration of 100 mM, and methylamine to a final concentration of 180 mM, and examining the change in absorbance of the reaction solution at 340 nm. The reaction temperature during measurement was 37° C.

Series [2] addresses T1, N-methyl-L-phenylalanine dehydrogenase. Nature of the series: Substrate specificity for keto acids with NADPH as coenzyme (Example 6). To be noted: keto acid 10 mM, NADPH 0.2 mM, methylamine pH 10 60 mM, 37° C.; β-phenylpyruvic acid = 100%. How it is done: as §1
Enzyme activity was measured by adding thereto various keto acids shown in Table 3 to a final concentration of 10 mM, NADPH to a final concentration of 0.2 mM, and methylamine adjusted to pH 10 with sulfuric acid to a final concentration of 60 mM, and examining the change in absorbance of the reaction mixture at 340 nm. The reaction temperature during measurement was 37° C. Defining the activity of the enzyme when β-phenylpyruvic acid was used as the substrate as 100%, the results are shown in Table 3 for relative activity.

Series [3] shares this target. The experiment in a line: Substrate specificity for amines with NADPH as coenzyme (Example 14). How it is done: as §1
Enzyme activity was measured by adding thereto various amines shown in Table 5 to a final concentration of 60 mM, NADPH to a final concentration of 0.2 mM, and β-phenylpyruvic acid to a final concentration of 10 mM, and examining the change in absorbance of the reaction solution at 340 nm. The reaction temperature during measurement was 37° C.

Series [4] addresses dehydrogenase represented by the amino acid sequence of SEQ ID No. 1 (Pseudomonas putida, UniProt Q5FB93). Nature of the series: Inhibition of dehydrogenase activity by divalent heavy metals. The note with it: 0.01 mM.
Series [5] addresses T1, N-methyl-L-phenylalanine dehydrogenase. Nature of the series: Reverse reaction with NAD as coenzyme (Example 13). To be noted: N-methyl-L-alanine 50 mM, NAD 10 mM, pH 10.0, 37° C. As to the method: as §1
Enzyme activity was measured by adding thereto N-methyl-L-alanine to a final concentration of 50 mM, NAD to a final concentration of 10 mM, and bis-Tris propane buffer (pH 10.0) to a final concentration of 100 mM, and examining the change in absorbance of the reaction mixture at 340 nm. The reaction temperature during measurement was 37° C. The activity was 7.8×10^−3 (u/mg of protein).

Series [6] concerns the target T2, N-methyl-L-phenylalanine dehydrogenase (Pseudomonas putida, UniProt Q5FB93).
T2 construct: made in house
T2 sequence (Q5FB93 whole entry, looked up): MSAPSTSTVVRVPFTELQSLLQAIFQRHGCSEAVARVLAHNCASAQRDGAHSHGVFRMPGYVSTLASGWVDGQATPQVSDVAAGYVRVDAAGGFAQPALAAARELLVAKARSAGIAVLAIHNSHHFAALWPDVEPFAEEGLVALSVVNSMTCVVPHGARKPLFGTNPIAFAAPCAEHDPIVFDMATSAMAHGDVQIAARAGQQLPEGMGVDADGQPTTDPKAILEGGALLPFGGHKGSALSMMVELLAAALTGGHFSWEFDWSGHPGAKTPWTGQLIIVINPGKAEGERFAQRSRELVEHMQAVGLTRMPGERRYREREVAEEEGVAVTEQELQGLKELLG
Nature of the series: Measurement of optimal pH, NADPH (Example 7). The note with it: phenylpyruvic acid and methylamine as substrates, 37° C. As to the method:
as §1
Enzyme activity was measured by adding thereto β-phenylpyruvic acid to a final concentration of 10 mM, NADPH to a final concentration of 0.2 mM, and methylamine adjusted to various pH values with sulfuric acid to a final concentration of 60 mM, and examining the change in absorbance of the reaction solution at 340 nm. The reaction temperature during measurement was 37° C. Defining the amount of enzyme that react with 1 micromole of β-phenylpyruvic acid per minute as 1 unit, the results are shown in FIG. 1 for the relationship between the number of units per protein amount (u/mg) and pH. The optimal pH of the reaction was 10.0.

The target in a further series is T3, present dehydrogenase (Pseudomonas putida, UniProt Q5FB93).
T3 construct: made in house; host or cells: Escherichia coli BL21 (DE3) carrying pENMadh and pSTV28-GDH; crude cellular extract
T3 sequence (Q5FB93 1-341): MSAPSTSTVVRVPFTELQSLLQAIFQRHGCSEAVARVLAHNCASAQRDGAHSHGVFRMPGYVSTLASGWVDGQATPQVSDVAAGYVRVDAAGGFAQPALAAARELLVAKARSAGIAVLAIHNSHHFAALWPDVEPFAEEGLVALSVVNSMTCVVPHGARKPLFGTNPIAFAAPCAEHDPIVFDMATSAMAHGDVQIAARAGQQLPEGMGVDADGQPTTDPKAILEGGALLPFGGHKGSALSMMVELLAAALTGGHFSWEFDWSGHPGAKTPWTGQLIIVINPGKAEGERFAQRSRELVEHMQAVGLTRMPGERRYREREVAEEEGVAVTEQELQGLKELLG
Nature of the series: Activity of the present dehydrogenase in crude extract of co-expressing Escherichia coli (Example 18). The note with it: crude cellular extract; pH 10.0, 0.2 mM NADPH, 30 mM methylamine, 10 mM sodium pyruvate, 30° C. How it is done:
Activity of the present dehydrogenase was measured in a reaction mixture containing 100 mM bis-trispropane buffer (pH 10.0), 0.2 mM NADPH, 30 mM methylamine, and 10 mM sodium pyruvate at 30° C. 1 U was defined as the amount of the enzyme capable of oxidizing 1 μmol of NADPH per minute under the above reaction conditions.

Series [7] addresses T2, N-methyl-L-phenylalanine dehydrogenase. Nature of the series: Optimal working temperature for the enzyme (Example 8). The note with it: phenylpyruvic acid and methylamine as substrates, pH 10; listed as dehydrogenase represented by the amino acid sequence of SEQ ID No. 1. As to the method:
Activity was measured using the same reaction conditions as in Example 6 and with methylamine-sulfuric acid (pH 10), except that the temperature was varied. The optimal temperature was 30 to 40° C.

Series [8] shares this target. The experiment in a line: Measurement of optimal pH when NADH is the coenzyme (Example 12). To be noted: pyruvic acid 80 mM, NADH 0.3 mM, methylamine 180 mM, 37° C. As to the method: as §1
Enzyme activity was measured by adding thereto pyruvic acid to a final concentration of 80 mM, NADH to a final concentration of 0.3 mM, and methylamine adjusted to various pH values with sulfuric acid to a final concentration of 180 mM, and examining the change in absorbance of the reaction mixture at 340 nm. The reaction temperature during measurement was 37° C. […] The optimal pH of the reaction was 9.5.

Series [9] shares this target. Nature of the series: Thermal stability of the enzyme (Example 10). As to the method:
The purified enzyme obtained in Example 5 was left at 25° C., 30° C., 35° C., 40° C., 45° C., and 50° C. for 30 minutes, and then measured for activity as in Example 7. The results are shown in FIG. 4 as remaining activity, with the activity of the untreated enzyme (left in ice) defined as 100.

[10] abbreviates: amine 60 mM, NADPH 0.2 mM, β-phenylpyruvic acid 10 mM, 37° C., methylamine = 100%.

With `O=C(O)C(=O)Cc1ccccc1` [phenylpyruvic acid], the values for the Relative activity in series [1] and in series [2] were 0% and 100%, respectively. As to `CNC` [dimethylamine], the Relative activity in series [3] (setting [10]) was found to be 1.4%. For the molecule `CCCC(=O)C(=O)O` [2-keto-n-valeric acid], the values for the Relative activity in series [1] and in series [2] were 7.5% and 53%, respectively. On to `CCN` [ethylamine], for which the Relative activity in series [3] (setting [10]) was 1.5%. Take `[Cl][Hg][Cl]` [mercury chloride (HgCl2), mercury chloride]: the “effect on dehydrogenase activity” value in [4] is reported as “inhibited”. `O=C(O)C(=O)CF` [β-fluoropyruvic acid]: the Relative activity in series [1] is 4.2%; in [2] it was 90%.

Turning to `[Cl][Cu][Cl]` [copper chloride (CuCl2), copper chloride], the “effect on dehydrogenase activity” value in series [4] is listed as “inhibited”. For `CCC(=O)C(=O)O` [2-ketobutyric acid], the values for the Relative activity in [1] and in [2] were 15% and 98%, respectively. As to `CN` [methylamine], the Relative activity in [3] (setting [10]) is listed as 100%. Turning to `CC(C)N` [isopropylamine], the Relative activity in series [3] (setting [10]) is listed as 1.5%.

With `CC(=O)C(=O)O` [pyruvic acid], the Relative activity in series [1] came to 100%; in [2], 334%. On to `CCCCC(=O)C(=O)O` [2-ketohexanoic acid], for which the Relative activity is 20% in [1] and 174% in [2]. `CCCCCCC(=O)C(=O)O` [2-ketooctanoic acid]: the Relative activity in series [2] is 25%. Consider `N` [ammonium], for which, in series [3], the Relative activity came to 0%. Turning to `CN[C@@H](C)C(=O)O` [N-methyl-L-alanine], in [5], the “activity (reverse reaction)” value is given as 7.8×10^−3 u/mg of protein. As for `CCCN` [N-propylamine], in [3] (setting [10]), the Relative activity is 1.1%. With `NC1CCCCC1` [cyclohexanamine], in series [3] (setting [10]), the Relative activity turned out to be 1.3%.

B1: present enzyme: novel dehydrogenase from Pseudomonas putida ATCC 12633, polypeptide of SEQ ID No. 1 (protein, listed as Pseudomonas putida)
chain: MSAPSTSTVVRVPFTELQSLLQAIFQRHGCSEAVARVLAHNCASAQRDGAHSHGVFRMPGYVSTLASGWVDGQATPQVSDVAAGYVRVDAAGGFAQPALAAARELLVAKARSAGIAVLAIHNSHHFAALWPDVEPFAEEGLVALSVVNSMTCVVPHGARKPLFGTNPIAFAAPCAEHDPIVFDMATSAMAHGDVQIAARAGQQLPEGMGVDADGQPTTDPKAILEGGALLPFGGHKGSALSMMVELLAAALTGGHFSWEFDWSGHPGAKTPWTGQLIIVINPGKAEGERFAQRSRELVEHMQAVGLTRMPGERRYREREVAEEEGVAVTEQELQGLKELLG
B1: the “optimal pH” value was 10.0 in series [6], “around 10” in series [6] (listed as dehydrogenase of the present invention) and 9.5 in series [8]. In addition, the “activity of the present dehydrogenase” value with present dehydrogenase is 6.6 U/mg of protein. Also, in series [7], the optimal temperature entry was “around 35 °C”. Further, in [9] (left 30 minutes, up to 30° C., untreated enzyme = 100), the remaining activity was 100%. In addition, the “temperature of thermal stability” value in series [9] (treated at optimal pH (pH 10) for 30 minutes) was under 30 °C.

One may read the remaining activity as the activity still measured, relative to the control. Higher therefore signals a small loss of activity.
